Results from patent US20090138208A1, “IMMUNOGLOBULIN G BINDING POCKET” (GE HEALTHCARE BIO-SCIENCES AB, priority 2002, published 2009).

Key:
human Fab of κ-type = human Fab of κ-type (Homo sapiens, UniProt P01834+P01857); assay: STD NMR screening (1D saturation transfer difference) for binding to antibody; set-up: key: 0 no; 1 weak; 2 strong signal; details: 0.5 mM ligand
Method: All NMR experiments were performed at 298 K on a Bruker Avance 500 MHz spectrometer. The 1D saturation transfer difference method (STD NMR) was used as screening assay (Mayer M. and Meyer B. 1999. Characterization of Ligand Binding by Saturation Transfer Difference NMR Spectroscopy. Angew. Chem., Int. Ed. 38: 1784-1788) using several antibody concentrations in order to differentiate between compounds with different binding strength (Peng J. W., Lepre C. A., Fejzo J., Abdul-Manan N. and Moore J. M. 2001. Nuclear Magnetic Resonance-Based Approaches for Lead Generation in Drug Discovery. Methods in Enzymology. 338: 202-230). The antibody used was a human Fab of κ-type. In all cases ligands were tested one-by-one. On-resonance irradiation was set at 0 ppm and off-resonance irradiation was set at −40 ppm. Irradiation time in each scan was 2 s and 16 K data points were collected with 1024 scans in total. Compounds for testing were dissolved in DMSOd6 to a concentration of 50 mM and 5 μL of the concentrated ligand solution was added to 495 μL buffer solution. The samples thus consisted of 0.5 mM ligand, 20 mM phosphate buffer, 100 mM NaCl and […] in D2O at pD 7.5, uncorrected reading on pH-meter.
Compounds were initially tested for binding with 0.5 μM antibody. Interesting ligands were further tested with protein concentrations of 100 or 20 nM. A one-dimensional ^1H-spectrum was acquired first and subsequently a saturation transfer difference (STD) spectrum was acquired. Each analysis took 60 minutes on the spectrometer. […] The analysis was setup for automation so that several samples could be analysed over night (usually 10-15 samples/night).
As many as 46 of the virtual screening hits were tested with NMR according to the procedure described above. The results from NMR screening together with additional compound data are compiled in Table 1 below. In total 24 compounds gave a positive result in the first round with the highest antibody concentration (500 nM). These 24 compounds were subjected to a second round with an antibody concentration of 100 nM. The 4 compounds showing the strongest signal in the second round were tested for binding in a third round with 20 nM antibody. Three of the compounds in the third round gave a positive result and where thus designated as the strongest binders to the antibody out of the 46 tested compounds.

[1] = tested on: F(ab′)2 fragment of a different specificity (kappa); assay: STD NMR control with F(ab′)2 fragment of a different specificity; format: binding; details: 1 μM protein; different variable part from Example 2
Method: The present example was performed with a F(ab′)2 fragment of a different specificity, i.e. a different variable part, from the one used in Example 2 above in order to verify that binding of one the selected compounds still occurred.
The testing was performed as described above in Example 2, but this time using 1 μM protein and using compound AB—0000860 as defined above in table 1. The results were positive, which implies that there is an interaction between AB—0000860 and at least two kappa Fab fragments of different specificities.

[2] = tested on: Fab fragment of lambda-type; assay: STD NMR control with Fab fragment of lambda-type; format: binding; details: tested as in Example 2 with lambda-type Fab
Method: Apart from the different Fab fragment, the testing was performed as described above in Example 2.

Sequence of human Fab of κ-type (P01857 with tags, fused parts or gaps, other chains not shown): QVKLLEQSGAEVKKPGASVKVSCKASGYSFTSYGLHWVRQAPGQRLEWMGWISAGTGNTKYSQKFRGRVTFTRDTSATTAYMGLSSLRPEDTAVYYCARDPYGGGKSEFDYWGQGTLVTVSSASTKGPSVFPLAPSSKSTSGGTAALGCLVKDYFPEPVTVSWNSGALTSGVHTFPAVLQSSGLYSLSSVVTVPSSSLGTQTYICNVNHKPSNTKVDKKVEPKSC

NMR signal conc 3 (human Fab of κ-type; 20 nM antibody): 1 | NMR signal conc 2 (human Fab of κ-type; 100 nM antibody): 2 | NMR signal conc 1 (human Fab of κ-type; 500 nM antibody, 298 K): 2 | binding to F(ab′)2 fragment (STD NMR result) [1]: positive | binding to lambda-type Fab (STD NMR result) [2]: negative
SMILES: O=C1CN(c2ccccc2)C(=O)N1c1ccccc1 [AB_0000860, 1,3-diphenylimidazolidine-2,4-dione]
